The text below walks through data of US8765763B2, “Substituted piperazines as CGRP antagonists” (Boehringer Ingelheim International GmbH, priority 2009, dated 2014).

T1 sequence (Q16602 23-461): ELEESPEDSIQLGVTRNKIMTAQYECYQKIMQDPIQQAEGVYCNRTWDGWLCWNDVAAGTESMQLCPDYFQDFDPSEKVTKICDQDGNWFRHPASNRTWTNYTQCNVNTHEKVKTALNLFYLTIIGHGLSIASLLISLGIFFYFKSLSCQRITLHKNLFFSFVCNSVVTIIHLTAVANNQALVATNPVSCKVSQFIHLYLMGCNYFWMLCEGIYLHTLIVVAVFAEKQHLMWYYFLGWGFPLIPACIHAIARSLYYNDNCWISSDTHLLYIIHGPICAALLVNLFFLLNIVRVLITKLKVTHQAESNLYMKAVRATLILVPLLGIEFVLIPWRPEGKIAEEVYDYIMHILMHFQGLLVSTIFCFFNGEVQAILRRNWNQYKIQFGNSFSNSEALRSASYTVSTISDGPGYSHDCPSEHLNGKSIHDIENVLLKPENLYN
T1 sequence (O60894 27-148): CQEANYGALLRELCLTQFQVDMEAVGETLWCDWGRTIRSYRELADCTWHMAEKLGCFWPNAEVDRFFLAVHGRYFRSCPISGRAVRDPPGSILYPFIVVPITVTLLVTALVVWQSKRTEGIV

This experiment addresses T1, human CGRP receptor (Homo sapiens, UniProt O60894+Q16602).
T1 construct: SK-N-MC membranes (˜20 μg protein) are incubated for 180 minutes at ambient temperature; endogenous in cells; host or cells: SK-N-MC cells (membranes)
In words: Binding studies with SK-N-MC cells (expressing the human CGRP receptor), 125I-iodotyrosyl-CGRP displacement on SK-N-MC membranes. To be noted: 50 pM 125I-iodotyrosyl-CGRP, 180 minutes at ambient temperature. As to the method: A. Binding Studies with SK-N-MC Cells (Expressing the Human CGRP Receptor)
SK-N-MC membranes (˜20 μg protein) are incubated for 180 minutes at ambient temperature with 50 pM ^125I-iodotyrosyl-Calcitonin-Gene-Related Peptide and increasing concentrations of the test substances in a total volume of 250 μl (assay buffer: 10 mM tris, 50 mM NaCl, 5 mM MgCl2, 1 mM EDTA, pH=7.4). The incubation is ended by rapid filtration through GF/B-glass fibre filters treated with polyethyleneimine (0.1%) using a cell harvester. The protein-bound radioactivity is measured using a gamma counter. Non-specific binding is defined as the bound radioactivity after the presence of 1 μM BIBN4096BS during incubation.
The concentration binding curves are analysed using computer-aided non-linear curve fitting.
Compound `O=C(CN1C(=O)C(C2CCOCC2)NCC1c1cc(F)cc(F)c1)Nc1ccc2c(c1)C[C@@]1(C2)C(=O)Nc2ncccc21` (single isomer, unassigned) [Example 15a] registered a Ki of 0.1 nM.

For `O=C(CN1C(=O)C2(COCCOC2)NC[C@H]1c1ccccc1)Nc1ccc2c(c1)C[C@@]1(C2)C(=O)Nc2ncccc21` [Example 21, N—((R)-2′-oxo-1,1′,2′,3-tetrahydrospiro[inden-2,3′-pyrrolo[2,3-b]pyridin]-5-yl)-2-((R)-5-oxo-3-phenyl-8,11-dioxa-1,4-diazaspiro[5.6]dodecan-4-yl)acetamide], the Ki amounted to 0.44 nM.

For `O=C(CN1C(=O)C2(COCCOC2)NC[C@H]1c1cc(F)cc(F)c1)Nc1ccc2c(c1)C[C@@]1(C2)C(=O)Nc2ncccc21` [Example 1a, 2-((R)-3-(3,5-difluorophenyl)-5-oxo-8,11-dioxa-1,4-diazaspiro[5.6]dodecan-4-yl)-N-((R)-2′-oxo-1,1′,2′,3-tetrahydrospiro[indene-2,3′-pyrrolo[2,3-b]pyridin]-5-yl)acetamide], the affinity, expressed as Ki, was 0.03 nM.

Turning to `O=C(CN1C(=O)[C@@H](CC2CCCCCC2)NCC1c1cc(F)cc(F)c1)Nc1ccc2c(c1)C[C@@]1(C2)C(=O)Nc2ncccc21` (single isomer, unassigned) [Example 16a], affinity was put at a Ki of 5.4 nM.

`O=C(CN1C(=O)C2(COCCOC2)NC[C@H]1c1cc(F)cc(F)c1)Nc1cc2c(cc1Cl)CC1(C2)C(=O)Nc2ncccc21` (stereo partly drawn) [Example 19, N-(5-chloro-2′-oxo-1,1′,2′,3-tetrahydrospiro[inden-2,3′-pyrrolo[2,3-b]pyridin]-6-yl)-2-((R)-3-(3,5-difluorophenyl)-5-oxo-8,11-dioxa-1,4-diazaspiro[5.6]dodecan-4-yl)acetamide] displayed an inhibition constant Ki of 1.41 nM.

`CN1C[C@@H](c2cc(F)cc(F)c2)N(CC(=O)Nc2ccc3c(c2)C[C@@]2(C3)C(=O)Nc3ncccc32)C(=O)C12COCCOC2` [Example 17, 2-((R)-3-(3,5-difluorophenyl)-1-methyl-5-oxo-8,11-dioxa-1,4-diazaspiro[5.6]dodecan-4-yl)-N-((R)-2′-oxo-1,1′,2′,3-tetrahydrospiro[inden-2,3′-pyrrolo[2,3-b]pyridin]-5-yl)acetamide] returned a Ki of 0.03 nM.

As for `O=C(CN1C(=O)C2(COCCOC2)NC[C@H]1c1cc(F)cc(F)c1)Nc1ccc2c(c1)C[C@]1(C2)C(=O)Nc2ncccc21` [Example 1b, 2-((R)-3-(3,5-difluorophenyl)-5-oxo-8,11-dioxa-1,4-diazaspiro[5.6]dodecan-4-yl)-N-((S)-2′-oxo-1,1′,2′,3-tetrahydrospiro[inden-2,3′-pyrrolo[2,3-b]pyridin]-5-yl)acetamide], affinity was put at a Ki of 1.77 nM.

Regarding `O=C(CN1C(=O)C2(COCCOC2)NC[C@H]1c1ccc(F)cc1)Nc1ccc2c(c1)C[C@@]1(C2)C(=O)Nc2ncccc21` [Example 22, 2-((R)-3-(4-fluorophenyl)-5-oxo-8,11-dioxa-1,4-diazaspiro[5.6]dodecan-4-yl)-N-((R)-2′-oxo-1,1′,2′,3-tetrahydrospiro[inden-2,3′-pyrrolo[2,3-b]pyridin]-5-yl)acetamide], the affinity, expressed as Ki, was 0.11 nM.

In turn, `O=C(CN1C(=O)C(C2CCOCC2)NCC1c1cc(F)cc(F)c1)Nc1ccc2c(c1)C[C@@]1(C2)C(=O)Nc2ncccc21` (single isomer, unassigned) [Example 15b] yielded an inhibitory constant (Ki) of 0.39 nM.

For `O=C(CN1C(=O)C2(COCCOC2)NC[C@H]1c1cc(F)cc(F)c1)Nc1cnc2c(c1)CC1(C2)C(=O)Nc2ncccc21` (stereo partly drawn) [Example 24, 2-((R)-3-(3,5-difluorophenyl)-5-oxo-8,11-dioxa-1,4-diazaspiro[5.6]dodecan-4-yl)-N-(2′-oxo-1′,2′,5,7-tetrahydrospiro[cyclopenta[b]pyridin-6,3′-pyrrolo[2,3-b]pyridin]-3-yl)acetamide], the affinity corresponds to a Ki of 0.07 nM.

`O=C(CN1C(=O)C2(COCCOC2)NCC1c1cccc(F)c1)Nc1ccc2c(c1)C[C@@]1(C2)C(=O)Nc2ncccc21` (stereo partly drawn) [Example 23, 2-(3-(3-fluorophenyl)-5-oxo-8,11-dioxa-1,4-diazaspiro[5.6]dodecan-4-yl)-N—((R)-2′-oxo-1,1′,2′,3-tetrahydrospiro[inden-2,3′-pyrrolo[2,3-b]pyridin]-5-yl)acetamide]: affinity was put at a Ki of 0.05 nM.

`O=C(CN1C(=O)[C@H](CC2CCCCCC2)NCC1c1cc(F)cc(F)c1)Nc1ccc2c(c1)C[C@@]1(C2)C(=O)Nc2ncccc21` (single isomer, unassigned) [Example 13 Diastereomer 1]: the inhibition constant (Ki) was found to be 0.72 nM.

As for `O=C(CN1C(=O)[C@@H](CC2CCCCCC2)NCC1c1cc(F)cc(F)c1)Nc1ccc2c(c1)C[C@@]1(C2)C(=O)Nc2ncccc21` (single isomer, unassigned) [Example 16b], the Ki amounted to 0.13 nM.

`O=C(CN1C(=O)[C@H](CC2CCCCCC2)NCC1c1cc(F)cc(F)c1)Nc1ccc2c(c1)C[C@@]1(C2)C(=O)Nc2ncccc21` (single isomer, unassigned) [Example 13 Diastereomer 2] returned an inhibition constant (Ki) of 0.71 nM.

`O=C(CN1C(=O)C2(CCC3(CCOCC3)CC2)NC[C@H]1c1cc(F)cc(F)c1)Nc1ccc2c(c1)C[C@@]1(C2)C(=O)Nc2ncccc21` [Example 14, 2-((R)-3-(3,5-difluoro-phenyl)-5-oxo-12-oxa-1,4-diaza-dispiro[5.2.5.2]hexadecan-4-yl)-N-((R)-2′-oxo-1,1′,2′,3-tetrahydrospiro[inden-2,3′-pyrrolo[2,3-b]pyridin]-5-yl)acetamide] had a Ki of 0.07 nM.

`O=C(CN1C(=O)C2(COCCOC2)NCC1c1cc(F)cc(F)c1)Nc1cc2c(cn1)CC1(C2)C(=O)Nc2ncccc21` (stereo not shown) [Example 2] returned a Ki of 1.02 nM.

The compound `O=C(CN1C(=O)C(CC2CCCCCC2)NCC1c1cc(F)cc(F)c1)Nc1ccc2c(c1)CC1(C2)C(=O)Nc2ncccc21` (stereo not shown) [Example 3] had a Ki of 0.72 nM.

`COc1cccc(C2CNC3(COCCOC3)C(=O)N2CC(=O)Nc2ccc3c(c2)C[C@@]2(C3)C(=O)Nc3ncccc32)c1` (stereo partly drawn) [Example 18, 2-(3-(3-methoxyphenyl)-5-oxo-8,11-dioxa-1,4-diazaspiro[5.6]dodecan-4-yl)-N—((R)-2′-oxo-1′,2′,3-tetrahydrospiro[inden-2,3′-pyrrolo[2,3-b]pyridin]-5-yl)acetamide] returned an inhibition constant Ki of 0.84 nM.

The compound `CC(C)(C)OC(=O)N1C[C@@H](c2ccccc2)N(CC(=O)Nc2ccc3c(c2)C[C@@]2(C3)C(=O)Nc3ncccc32)C(=O)C12COCCOC2` [Example 20, (R)-tert-butyl 5-oxo-4-(2-oxo-2-((R)-2′-oxo-1,1′,2′,3-tetrahydrospiro[inden-2,3′-pyrrolo[2,3-b]pyridin]-5-ylamino)ethyl)-3-phenyl-8,11-dioxa-1,4-diazaspiro[5.6]dodecane-1-carboxylate] yielded a Ki of 0.96 nM.
